Assay results reported in ChEMBL document CHEMBL3407472, “Multi-parameter optimization of aza-follow-ups to BI 207524, a thumb pocket 1 HCV NS5B polymerase inhibitor. Part 2: Impact of lipophilicity on promiscuity and in vivo toxicity” (Bioorg Med Chem Lett, 2015).

Tested on: Hepatitis C virus
Test: Antiviral activity against Hepatitis C virus genotype 1a infected in human Huh cells assessed as inhibition of viral replication by RT-PCR-based replicon assay
Type: functional, cell-based, Hepacivirus hominis
Details: subtype 1a

Compound | EC50
CCOc1nc(NC(=O)C2(NC(=O)c3ccc4c(C5CCCC5)c(-c5ncc(Br)cn5)n(C)c4c3)CCC2)ccc1/C=C/C(=O)O | 24 nM
CCOc1nc(NC(=O)C2(NC(=O)c3ccc4c(C5CCCC5)c(-c5ccc(F)cn5)n(C)c4c3)CCC2)cnc1/C=C/C(=O)O | 89 nM
CCOc1nc(NC(=O)C(C)(C)NC(=O)c2ccc3c(C4CCCC4)c(-c4ncc(Br)cn4)n(C)c3c2)cnc1/C=C/C(=O)O | 67 nM

Now from value to molecule:

EC50 | Compound
9 nM | CCOc1nc(NC(=O)C(C)(C)NC(=O)c2ccc3c(C4CCCC4)c(-c4ccc(Cl)cn4)n(C)c3c2)ccc1/C=C/C(=O)O
8 nM | CCOc1nc(NC(=O)C(C)(C)NC(=O)c2ccc3c(C4CCCC4)c(-c4ncc(Br)cn4)n(C)c3c2)ccc1/C=C/C(=O)O
14 nM | CCOc1nc(NC(=O)C(C)(C)NC(=O)c2ccc3c(c2)c(C)c(-c2ccc(F)cn2)n3C2CCCCC2)ccc1/C=C/C(=O)O
14 nM | CCOc1nc(NC(=O)C2(NC(=O)c3ccc4c(C5CCCC5)c(-c5ncc(Cl)cn5)n(C)c4c3)CCCC2)ccc1/C=C/C(=O)O
27 nM | CCOc1nc(NC(=O)C2(NC(=O)c3ccc4c(C5CCCC5)c(-c5ncc(Cl)cn5)n(C)c4c3)CCCC2)cnc1/C=C/C(=O)O

Tested on: not listed separately
Test: Lipophilicity, log D of the compound at pH 7.4
Type: physicochemical
Details: buffer

Compound | logD
CCOc1nc(NC(=O)C2(NC(=O)c3ccc4c(C5CCCC5)c(-c5ncc(Cl)cn5)n(C)c4c3)CCC2)cnc1/C=C/C(=O)O | 3.5
CCOc1nc(NC(=O)C2(NC(=O)c3ccc4c(C5CCCC5)c(-c5cnccn5)n(C)c4c3)CCC2)cnc1/C=C/C(=O)O | 2.9
CCOc1nc(NC(=O)C2(NC(=O)c3ccc4c(C5CCCC5)c(-c5ncc(Br)cn5)n(C)c4c3)CCC2)cnc1/C=C/C(=O)O | 4.2
CCOc1nc(NC(=O)C(C)(C)NC(=O)c2ccc3c(C4CCCC4)c(-c4ccccn4)n(C)c3c2)cnc1/C=C/C(=O)O | 2.2
CCOc1nc(NC(=O)C(C)(C)NC(=O)c2ccc3c(C4CCCC4)c(-c4cnccn4)n(C)c3c2)cnc1/C=C/C(=O)O | 2.4
CCOc1nc(NC(=O)C(C)(C)NC(=O)c2ccc3c(C4CCCC4)c(-c4cncnc4)n(C)c3c2)cnc1/C=C/C(=O)O | 2.2
CCOc1nc(NC(=O)C(C)(C)NC(=O)c2ccc3c(C4CCCC4)c(-c4ncc(Br)cn4)n(C)c3c2)cnc1/C=C/C(=O)O | 3.4
CCOc1nc(NC(=O)C2(NC(=O)c3ccc4c(C5CCCC5)c(-c5ccccn5)n(C)c4c3)CCCC2)cnc1/C=C/C(=O)O | 2.6
CCOc1nc(NC(=O)C2(NC(=O)c3ccc4c(C5CCCC5)c(-c5ccc(F)cn5)n(C)c4c3)CCCC2)cnc1/C=C/C(=O)O | 3.9
CCOc1nc(NC(=O)C2(NC(=O)c3ccc4c(C5CCCC5)c(-c5ccc(Cl)cn5)n(C)c4c3)CCCC2)cnc1/C=C/C(=O)O | > 4.4
CCOc1nc(NC(=O)C2(NC(=O)c3ccc4c(C5CCCC5)c(-c5cncnc5)n(C)c4c3)CCCC2)cnc1/C=C/C(=O)O | 2.8
COc1nc(NC(=O)C2(NC(=O)c3ccc4c(C5CCCC5)c(-c5ccc(Cl)cn5)n(C)c4c3)CCC2)ccc1/C=C/C(=O)O | 4.6
COc1nc(NC(=O)C2(NC(=O)c3ccc4c(C5CCCC5)c(-c5ncc(Br)cn5)n(C)c4c3)CCC2)ccc1/C=C/C(=O)O | 3.9
COc1nc(NC(=O)C(C)(C)NC(=O)c2ccc3c(C4CCCC4)c(-c4ncc(Cl)cn4)n(C)c3c2)ccc1/C=C/C(=O)O | 3.3

Other lines, results leading:

logD | Compound
3.5 | CCOc1nc(NC(=O)C(C)(C)NC(=O)c2ccc3c(C4CCCC4)c(-c4ccccn4)n(C)c3c2)ccc1/C=C/C(=O)O
4.4 | CCOc1nc(NC(=O)C(C)(C)NC(=O)c2ccc3c(C4CCCC4)c(-c4ccc(Cl)cn4)n(C)c3c2)ccc1/C=C/C(=O)O
2.9 | CCOc1nc(NC(=O)C(C)(C)NC(=O)c2ccc3c(C4CCCC4)c(-c4cnccn4)n(C)c3c2)ccc1/C=C/C(=O)O
> 4.7 | CCOc1nc(NC(=O)C(C)(C)NC(=O)c2ccc3c(C4CCCC4)c(-c4ncc(Br)cn4)n(C)c3c2)ccc1/C=C/C(=O)O
3.9 | CCOc1nc(NC(=O)C(C)(C)NC(=O)c2ccc3c(c2)c(C)c(-c2ccc(F)cn2)n3C2CCCCC2)ccc1/C=C/C(=O)O
> 6.2 | CCOc1nc(NC(=O)C2(NC(=O)c3ccc4c(C5CCCC5)c(-c5ncc(Cl)cn5)n(C)c4c3)CCCC2)ccc1/C=C/C(=O)O
> 5.3 | CCOc1nc(NC(=O)C2(NC(=O)c3ccc4c(C5CCCC5)c(-c5ccc(F)cn5)n(C)c4c3)CCCC2)ccc1/C=C/C(=O)O
> 5.5 | CCOc1nc(NC(=O)C2(NC(=O)c3ccc4c(C5CCCC5)c(-c5ccc(Cl)cn5)n(C)c4c3)CCCC2)ccc1/C=C/C(=O)O
4.1 | CCOc1nc(NC(=O)C2(NC(=O)c3ccc4c(C5CCCC5)c(-c5cnccn5)n(C)c4c3)CCCC2)ccc1/C=C/C(=O)O
3.6 | CCOc1nc(NC(=O)C2(NC(=O)c3ccc4c(C5CCCC5)c(-c5cncnc5)n(C)c4c3)CCCC2)ccc1/C=C/C(=O)O
> 6.6 | CCOc1nc(NC(=O)C2(NC(=O)c3ccc4c(C5CCCC5)c(-c5ncc(Br)cn5)n(C)c4c3)CCCC2)ccc1/C=C/C(=O)O
> 6.2 | CCOc1nc(NC(=O)C2(NC(=O)c3ccc4c(c3)c(C)c(-c3ccc(F)cn3)n4C3CCCCC3)CCCC2)ccc1/C=C/C(=O)O
4.3 | CCOc1nc(NC(=O)C2(NC(=O)c3ccc4c(C5CCCC5)c(-c5ncc(Cl)cn5)n(C)c4c3)CCCC2)cnc1/C=C/C(=O)O
> 4.2 | CCOc1nc(NC(=O)C2(NC(=O)c3ccc4c(C5CCCC5)c(-c5ncc(Br)cn5)n(C)c4c3)CCCC2)cnc1/C=C/C(=O)O
4.2 | CCOc1nc(NC(=O)C2(NC(=O)c3ccc4c(c3)c(C)c(-c3ccc(F)cn3)n4C3CCCCC3)CCCC2)cnc1/C=C/C(=O)O

Tested on: Hepatitis C virus
Test: Antiviral activity against Hepatitis C virus genotype 1b infected in human Huh cells assessed as inhibition of viral replication by RT-PCR-based replicon assay
Type: functional, cell-based, Hepacivirus hominis
Details: not given

Compound | EC50
CCOc1nc(NC(=O)C2(NC(=O)c3ccc4c(C5CCCC5)c(-c5ncc(Br)cn5)n(C)c4c3)CCC2)ccc1/C=C/C(=O)O | 12 nM
CCOc1nc(NC(=O)C2(NC(=O)c3ccc4c(C5CCCC5)c(-c5ccc(F)cn5)n(C)c4c3)CCC2)cnc1/C=C/C(=O)O | 20 nM
CCOc1nc(NC(=O)C2(NC(=O)c3ccc4c(C5CCCC5)c(-c5cnccn5)n(C)c4c3)CCC2)cnc1/C=C/C(=O)O | 22 nM
CCOc1nc(NC(=O)C2(NC(=O)c3ccc4c(C5CCCC5)c(-c5ncc(Br)cn5)n(C)c4c3)CCC2)cnc1/C=C/C(=O)O | 30 nM
CCOc1nc(NC(=O)C(C)(C)NC(=O)c2ccc3c(C4CCCC4)c(-c4ccccn4)n(C)c3c2)cnc1/C=C/C(=O)O | 44 nM
CCOc1nc(NC(=O)C(C)(C)NC(=O)c2ccc3c(C4CCCC4)c(-c4cnccn4)n(C)c3c2)cnc1/C=C/C(=O)O | 36 nM
CCOc1nc(NC(=O)C(C)(C)NC(=O)c2ccc3c(C4CCCC4)c(-c4cncnc4)n(C)c3c2)cnc1/C=C/C(=O)O | 82 nM
CCOc1nc(NC(=O)C(C)(C)NC(=O)c2ccc3c(C4CCCC4)c(-c4ncc(Br)cn4)n(C)c3c2)cnc1/C=C/C(=O)O | 14 nM
CCOc1nc(NC(=O)C2(NC(=O)c3ccc4c(C5CCCC5)c(-c5ccccn5)n(C)c4c3)CCCC2)cnc1/C=C/C(=O)O | 16 nM
CCOc1nc(NC(=O)C2(NC(=O)c3ccc4c(C5CCCC5)c(-c5ccc(F)cn5)n(C)c4c3)CCCC2)cnc1/C=C/C(=O)O | 11 nM
CCOc1nc(NC(=O)C2(NC(=O)c3ccc4c(C5CCCC5)c(-c5ccc(Cl)cn5)n(C)c4c3)CCCC2)cnc1/C=C/C(=O)O | 13 nM
CCOc1nc(NC(=O)C2(NC(=O)c3ccc4c(C5CCCC5)c(-c5cncnc5)n(C)c4c3)CCCC2)cnc1/C=C/C(=O)O | 18 nM
COc1nc(NC(=O)C2(NC(=O)c3ccc4c(C5CCCC5)c(-c5ccc(Cl)cn5)n(C)c4c3)CCC2)ccc1/C=C/C(=O)O | 13 nM
COc1nc(NC(=O)C2(NC(=O)c3ccc4c(C5CCCC5)c(-c5ncc(Br)cn5)n(C)c4c3)CCC2)ccc1/C=C/C(=O)O | 9 nM
COc1nc(NC(=O)C(C)(C)NC(=O)c2ccc3c(C4CCCC4)c(-c4ncc(Cl)cn4)n(C)c3c2)ccc1/C=C/C(=O)O | 47 nM

Results, then the molecule that gave them:

EC50 | Compound
2 nM | CCOc1nc(NC(=O)C(C)(C)NC(=O)c2ccc3c(C4CCCC4)c(-c4ccccn4)n(C)c3c2)ccc1/C=C/C(=O)O
5 nM | CCOc1nc(NC(=O)C(C)(C)NC(=O)c2ccc3c(C4CCCC4)c(-c4ccc(Cl)cn4)n(C)c3c2)ccc1/C=C/C(=O)O
7 nM | CCOc1nc(NC(=O)C(C)(C)NC(=O)c2ccc3c(C4CCCC4)c(-c4cnccn4)n(C)c3c2)ccc1/C=C/C(=O)O
5 nM | CCOc1nc(NC(=O)C(C)(C)NC(=O)c2ccc3c(C4CCCC4)c(-c4ncc(Br)cn4)n(C)c3c2)ccc1/C=C/C(=O)O
3 nM | CCOc1nc(NC(=O)C(C)(C)NC(=O)c2ccc3c(c2)c(C)c(-c2ccc(F)cn2)n3C2CCCCC2)ccc1/C=C/C(=O)O
3 nM | CCOc1nc(NC(=O)C2(NC(=O)c3ccc4c(C5CCCC5)c(-c5ncc(Cl)cn5)n(C)c4c3)CCCC2)ccc1/C=C/C(=O)O
4 nM | CCOc1nc(NC(=O)C2(NC(=O)c3ccc4c(C5CCCC5)c(-c5ccc(F)cn5)n(C)c4c3)CCCC2)ccc1/C=C/C(=O)O
4 nM | CCOc1nc(NC(=O)C2(NC(=O)c3ccc4c(C5CCCC5)c(-c5ccc(Cl)cn5)n(C)c4c3)CCCC2)ccc1/C=C/C(=O)O
5 nM | CCOc1nc(NC(=O)C2(NC(=O)c3ccc4c(C5CCCC5)c(-c5cnccn5)n(C)c4c3)CCCC2)ccc1/C=C/C(=O)O
5 nM | CCOc1nc(NC(=O)C2(NC(=O)c3ccc4c(C5CCCC5)c(-c5cncnc5)n(C)c4c3)CCCC2)ccc1/C=C/C(=O)O
5 nM | CCOc1nc(NC(=O)C2(NC(=O)c3ccc4c(C5CCCC5)c(-c5ncc(Br)cn5)n(C)c4c3)CCCC2)ccc1/C=C/C(=O)O
5 nM | CCOc1nc(NC(=O)C2(NC(=O)c3ccc4c(c3)c(C)c(-c3ccc(F)cn3)n4C3CCCCC3)CCCC2)ccc1/C=C/C(=O)O
6 nM | CCOc1nc(NC(=O)C2(NC(=O)c3ccc4c(C5CCCC5)c(-c5ncc(Cl)cn5)n(C)c4c3)CCCC2)cnc1/C=C/C(=O)O
9 nM | CCOc1nc(NC(=O)C2(NC(=O)c3ccc4c(C5CCCC5)c(-c5ncc(Br)cn5)n(C)c4c3)CCCC2)cnc1/C=C/C(=O)O
6 nM | CCOc1nc(NC(=O)C2(NC(=O)c3ccc4c(c3)c(C)c(-c3ccc(F)cn3)n4C3CCCCC3)CCCC2)cnc1/C=C/C(=O)O
